Source: publication PMC8341910, “Structural and biophysical insights into the mode of covalent binding of rationally designed potent BMX inhibitors” (RSC Chemical Biology, 2020)
≈ marks a conversion by molar mass, not a printed value. Where two headings read alike, the source gives them in different places. Blank lines part the entries; values can stand above or below the compound they belong to.

Tests used:
PC3 cells = assay: PC-3 cell growth assay (CellTiter-Glo, 96 h); type: cell-based; conditions: Homo sapiens, read-out: GI50 PC3
Description: (§1) GI50 values are reported in μM and are the mean of three individual experiments performed in triplicate. N.d., non-determined, no growth inhibition observed within the concentrations tested.
(§2) Cellular activity Assay: LNCaP and PC-3 Cell Growth Assay
(§3) Cells were seeded in white, opaque-bottom 96-well plates at 5000 cells/well (LNCaP) or 2000 cells/well (PC-3) in a total volume of 100 µL of culture media.
(§4) fold) in 100 µL media were added to the cells 24 hours later. After 96 hours incubation cellular viability was assessed by CellTiter-Glo® (Promega) according to the manufacturer’s instructions. The values were normalized to vehicle and IC50 was calculated using GraphPad

BMX = biological target: T1, BMX (Homo sapiens, UniProt P51813); assay: BMX biochemical activity assay (HTRF, phosphorylation of a biotinylated peptide)
T1 sequence (P51813 1-675): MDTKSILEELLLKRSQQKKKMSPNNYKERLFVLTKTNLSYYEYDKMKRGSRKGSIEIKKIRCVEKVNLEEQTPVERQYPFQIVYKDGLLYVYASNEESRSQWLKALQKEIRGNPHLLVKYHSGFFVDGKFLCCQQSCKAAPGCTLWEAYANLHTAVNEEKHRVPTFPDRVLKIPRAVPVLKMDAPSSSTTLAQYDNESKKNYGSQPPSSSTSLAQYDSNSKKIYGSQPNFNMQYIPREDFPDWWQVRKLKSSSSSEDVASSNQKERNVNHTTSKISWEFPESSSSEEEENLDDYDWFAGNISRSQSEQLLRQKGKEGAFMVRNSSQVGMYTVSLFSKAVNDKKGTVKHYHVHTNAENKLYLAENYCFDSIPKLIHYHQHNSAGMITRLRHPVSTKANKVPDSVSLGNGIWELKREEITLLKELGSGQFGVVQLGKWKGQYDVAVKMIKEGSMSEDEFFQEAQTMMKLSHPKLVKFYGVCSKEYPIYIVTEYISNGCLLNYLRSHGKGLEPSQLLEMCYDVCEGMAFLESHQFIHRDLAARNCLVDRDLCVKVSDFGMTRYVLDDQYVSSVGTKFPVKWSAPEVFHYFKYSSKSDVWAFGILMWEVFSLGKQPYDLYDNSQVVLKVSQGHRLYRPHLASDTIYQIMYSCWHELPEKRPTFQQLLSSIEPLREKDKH

BTK [1] = biological target: T2, BTK (Homo sapiens, UniProt Q06187); assay: BTK biochemical activity assay (radiometric, KinaseProfiler); design: purchased Eurofins DiscoverX KinaseProfiler (contract assay); conditions: for IC50: duplicate, mean ± S.D., read-out: BTK inhibition IC50
in vitro = conditions: PAMPA
[2] = pH 6.8
Kasumi = assay: Multi cell line growth assay (CellTiter-Glo, 72 h); type: cell-based, human; conditions: Homo sapiens, Blood, ND = no growth inhibition observed
U-87MG = assay: Multi cell line growth assay (CellTiter-Glo, 72 h); type: cell-based; conditions: Homo sapiens, Brain, ND = no growth inhibition observed
LNCaP cells [3] = assay: LNCaP cell growth assay (CellTiter-Glo, 96 h); type: cell-based; conditions: Homo sapiens, read-out: GI50 LNCaP
Description: as §1, §2, §3, §4

LNCaP cells [4] = assay: Anti-proliferative co-treatment assays in LNCaP; type: cell-based; conditions: JS24 3 μM, JS25 5 μM, JS26 6 μM, 5 days; for cell viability reduction: co-treatment with Flutamide (50 μM)
SK-N-MC = assay: Multi cell line growth assay (CellTiter-Glo, 72 h); type: cell-based, human; conditions: Homo sapiens, SK-N-MC, Brain, ND = no growth inhibition observed
[5] = Dynamic light scattering, colloidal aggregation; type: physicochemical; conditions: deionized and filtered water (0.1% DMSO), kinetic from dmso stock, measured at 10 µM, 1 µM and 100 nM, 25 °C, read-out: DLS maximum soluble concentration at which no aggregates are observed
Description: In addition, we measured particle sizes by using dynamic light scattering (DLS).
DLS is measured at 10 µM, 1µM and 100 nM. The maximum soluble
concentration – at which no aggregates are observed - is indicated and the colour code indicates
Dynamic Light Scattering:
Dynamic light scattering (Zetasizer Nano S, Malvern, UK) was used to determine compound colloidal aggregation. […] A 10 mM stock solution of
test compounds was prepared in DMSO, following dilution to deionized and filtered water to
obtain an analyte solution of 10 μM (0.1% DMSO). Colloidal aggregation was measured
through sequential dilutions at 10 μM, 1 μM and 0.1 μM.

[6] = biological target: T3, recombinant human BMX protein (hBMX) (Homo sapiens, UniProt P51813); assay: Differential scanning fluorimetry (DSF); type: binding; conditions: for ΔTm at 100 µM: read-out: ΔTm; for Average Tm of BMX with compound: apo-BMX Tm 51.8-52.2 °C
T3 construct: Crystallization, data collection, and structure determination of BMX catalytic domain in; made in house; host or cells: Sf-9 insect cells

BTK [7] = biological target: T2, BTK; assay: KINOMEscan binding; conditions: read-out: % Ctrl BTK
Description: (§5) Therefore, we included the whole TEC, EGFR and JAK family in our screening, and the Src family and Lkb1, which also have a cysteine within the same sequence alignment.
(§6) Kinome selectivity was performed with DiscoverX KINOMEscan™ technology.

AKT1 = AKT1 (Homo sapiens, UniProt P31749); assay: KINOMEscan binding; conditions: read-out: % Ctrl AKT1
Description: (§7) Therefore, we included the whole TEC, EGFR and JAK family in our screening, and the Src family and Lkb1, which also have a cysteine within the same sequence alignment. We also included kinases involved in upstream (Src, FAK, PI3K, mTOR, PDK1) and downstream (Akt, PAK1, TAM) regulation of BMX signaling pathway and non-receptor tyrosine protein kinase Abl.
as §6

ABL1-phosphorylated = ABL1-phosphorylated (Homo sapiens, UniProt P00519); assay: KINOMEscan binding; conditions: read-out: % Ctrl ABL1-phosphorylated
Description: as §7, §6

TEC = TEC (Homo sapiens, UniProt P42680); assay: KINOMEscan binding; conditions: read-out: % Ctrl TEC
Description: as §5, §6

MERTK = MERTK (Homo sapiens, UniProt Q12866); assay: KINOMEscan binding; conditions: read-out: % Ctrl MERTK
Description: as §7, §6

FGR = FGR (Homo sapiens, UniProt P09769); assay: KINOMEscan binding; conditions: read-out: % Ctrl FGR
Description: as §5, §6

STK11 = STK11 (Homo sapiens, UniProt Q15831); assay: KINOMEscan binding; conditions: read-out: % Ctrl STK11
Description: as §7, §6

TXK = TXK (Homo sapiens, UniProt P42681); assay: KINOMEscan binding; conditions: read-out: % Ctrl TXK
Description: as §5, §6

[8] = biological target: JAK3(JH1domain-catalytic) (Homo sapiens, UniProt P52333); assay: KINOMEscan binding; conditions: read-out: % Ctrl JAK3(JH1domain-catalytic)
Description: as §7, §6

MTOR = MTOR (Homo sapiens, UniProt P42345); assay: KINOMEscan binding; conditions: read-out: % Ctrl MTOR
Description: as §7, §6

[9] = Experiment 4 of Fig. S3 = Fig. 1b, duplicate, mean ± S.D., read-out: BMX inhibition IC50
[10] = pH 6.8, PAMPA/Pe effective permeability
[11] = co-treatment with LY294002 (3 μM)

T2 sequence (Q06187 whole entry, species assumed): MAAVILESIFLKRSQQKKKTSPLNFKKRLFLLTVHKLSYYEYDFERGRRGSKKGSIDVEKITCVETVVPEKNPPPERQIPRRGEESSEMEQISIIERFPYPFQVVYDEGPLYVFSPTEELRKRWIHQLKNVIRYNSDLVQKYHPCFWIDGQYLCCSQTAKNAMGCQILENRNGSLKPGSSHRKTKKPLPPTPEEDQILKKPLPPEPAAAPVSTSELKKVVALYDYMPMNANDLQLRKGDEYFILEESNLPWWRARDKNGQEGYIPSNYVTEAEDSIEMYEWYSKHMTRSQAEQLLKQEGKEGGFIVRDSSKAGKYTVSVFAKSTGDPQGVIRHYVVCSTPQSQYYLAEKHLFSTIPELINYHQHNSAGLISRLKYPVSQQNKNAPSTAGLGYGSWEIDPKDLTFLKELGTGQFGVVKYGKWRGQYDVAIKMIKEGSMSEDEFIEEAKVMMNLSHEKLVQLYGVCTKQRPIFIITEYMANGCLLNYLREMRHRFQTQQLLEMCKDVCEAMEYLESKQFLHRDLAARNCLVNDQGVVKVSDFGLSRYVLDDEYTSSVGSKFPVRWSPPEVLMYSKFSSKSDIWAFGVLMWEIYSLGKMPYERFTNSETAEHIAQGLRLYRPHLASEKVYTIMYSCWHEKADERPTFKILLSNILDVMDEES
Sequence of ABL1-phosphorylated (P00519 whole entry): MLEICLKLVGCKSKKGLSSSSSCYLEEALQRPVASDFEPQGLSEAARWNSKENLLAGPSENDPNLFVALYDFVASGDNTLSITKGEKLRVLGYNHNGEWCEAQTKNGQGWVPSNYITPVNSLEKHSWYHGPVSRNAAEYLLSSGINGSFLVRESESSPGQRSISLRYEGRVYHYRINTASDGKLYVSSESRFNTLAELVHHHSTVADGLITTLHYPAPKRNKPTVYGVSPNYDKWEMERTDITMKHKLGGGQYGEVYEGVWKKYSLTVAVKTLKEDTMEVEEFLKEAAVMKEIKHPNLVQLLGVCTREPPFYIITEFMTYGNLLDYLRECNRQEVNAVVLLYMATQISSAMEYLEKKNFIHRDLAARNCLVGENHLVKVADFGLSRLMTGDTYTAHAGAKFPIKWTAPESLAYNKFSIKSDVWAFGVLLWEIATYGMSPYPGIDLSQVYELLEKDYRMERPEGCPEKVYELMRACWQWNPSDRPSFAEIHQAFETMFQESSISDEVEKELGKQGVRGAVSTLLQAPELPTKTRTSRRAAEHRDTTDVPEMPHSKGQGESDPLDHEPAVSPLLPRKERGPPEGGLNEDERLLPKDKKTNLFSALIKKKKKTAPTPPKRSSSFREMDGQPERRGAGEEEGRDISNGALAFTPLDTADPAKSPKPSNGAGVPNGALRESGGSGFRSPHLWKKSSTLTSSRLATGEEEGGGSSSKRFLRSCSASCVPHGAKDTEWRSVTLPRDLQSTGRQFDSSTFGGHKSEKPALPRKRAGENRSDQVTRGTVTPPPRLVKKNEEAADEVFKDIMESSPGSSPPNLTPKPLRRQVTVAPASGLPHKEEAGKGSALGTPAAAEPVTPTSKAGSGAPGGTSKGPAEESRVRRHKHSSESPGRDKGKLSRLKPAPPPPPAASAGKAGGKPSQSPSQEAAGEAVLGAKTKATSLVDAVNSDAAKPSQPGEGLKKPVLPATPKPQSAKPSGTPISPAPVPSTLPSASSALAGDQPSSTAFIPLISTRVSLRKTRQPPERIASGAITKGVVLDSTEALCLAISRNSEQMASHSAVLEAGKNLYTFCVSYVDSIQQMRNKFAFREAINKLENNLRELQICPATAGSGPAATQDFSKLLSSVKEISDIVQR
Sequence of STK11 (Q15831 whole entry): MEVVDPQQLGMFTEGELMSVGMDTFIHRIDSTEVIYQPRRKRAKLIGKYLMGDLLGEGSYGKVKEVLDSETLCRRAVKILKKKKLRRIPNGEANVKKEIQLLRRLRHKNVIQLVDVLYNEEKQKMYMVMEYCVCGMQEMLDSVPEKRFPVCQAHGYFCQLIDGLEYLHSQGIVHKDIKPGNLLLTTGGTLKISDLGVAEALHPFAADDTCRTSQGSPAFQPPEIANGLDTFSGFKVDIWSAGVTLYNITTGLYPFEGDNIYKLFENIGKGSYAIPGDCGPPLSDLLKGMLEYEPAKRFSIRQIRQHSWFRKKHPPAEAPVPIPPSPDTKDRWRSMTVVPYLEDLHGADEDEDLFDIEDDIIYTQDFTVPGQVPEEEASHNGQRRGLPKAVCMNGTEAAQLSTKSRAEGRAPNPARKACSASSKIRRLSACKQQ
Sequence of JAK3(JH1domain-catalytic) (P52333 814-1124 limits assumed): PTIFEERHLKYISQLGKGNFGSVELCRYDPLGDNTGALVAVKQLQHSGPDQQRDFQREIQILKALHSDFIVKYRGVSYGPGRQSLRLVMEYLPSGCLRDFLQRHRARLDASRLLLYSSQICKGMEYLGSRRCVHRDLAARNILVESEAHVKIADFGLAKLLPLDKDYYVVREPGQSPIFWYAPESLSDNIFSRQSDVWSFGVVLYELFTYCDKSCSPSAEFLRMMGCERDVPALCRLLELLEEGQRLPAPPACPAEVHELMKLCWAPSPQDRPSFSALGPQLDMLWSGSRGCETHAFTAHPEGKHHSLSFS
Sequence of AKT1 (P31749 whole entry): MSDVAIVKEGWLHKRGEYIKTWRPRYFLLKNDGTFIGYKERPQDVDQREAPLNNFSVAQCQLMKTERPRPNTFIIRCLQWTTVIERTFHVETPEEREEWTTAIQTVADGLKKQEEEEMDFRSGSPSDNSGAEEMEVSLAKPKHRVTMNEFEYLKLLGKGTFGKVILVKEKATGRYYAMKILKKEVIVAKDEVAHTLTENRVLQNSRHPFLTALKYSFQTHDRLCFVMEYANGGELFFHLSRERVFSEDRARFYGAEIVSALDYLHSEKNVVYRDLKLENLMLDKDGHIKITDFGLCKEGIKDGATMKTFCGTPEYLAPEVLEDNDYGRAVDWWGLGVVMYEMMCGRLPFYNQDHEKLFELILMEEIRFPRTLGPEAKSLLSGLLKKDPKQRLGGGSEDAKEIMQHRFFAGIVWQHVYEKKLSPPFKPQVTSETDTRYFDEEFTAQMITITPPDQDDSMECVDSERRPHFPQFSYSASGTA
Sequence of TEC (P42680 whole entry): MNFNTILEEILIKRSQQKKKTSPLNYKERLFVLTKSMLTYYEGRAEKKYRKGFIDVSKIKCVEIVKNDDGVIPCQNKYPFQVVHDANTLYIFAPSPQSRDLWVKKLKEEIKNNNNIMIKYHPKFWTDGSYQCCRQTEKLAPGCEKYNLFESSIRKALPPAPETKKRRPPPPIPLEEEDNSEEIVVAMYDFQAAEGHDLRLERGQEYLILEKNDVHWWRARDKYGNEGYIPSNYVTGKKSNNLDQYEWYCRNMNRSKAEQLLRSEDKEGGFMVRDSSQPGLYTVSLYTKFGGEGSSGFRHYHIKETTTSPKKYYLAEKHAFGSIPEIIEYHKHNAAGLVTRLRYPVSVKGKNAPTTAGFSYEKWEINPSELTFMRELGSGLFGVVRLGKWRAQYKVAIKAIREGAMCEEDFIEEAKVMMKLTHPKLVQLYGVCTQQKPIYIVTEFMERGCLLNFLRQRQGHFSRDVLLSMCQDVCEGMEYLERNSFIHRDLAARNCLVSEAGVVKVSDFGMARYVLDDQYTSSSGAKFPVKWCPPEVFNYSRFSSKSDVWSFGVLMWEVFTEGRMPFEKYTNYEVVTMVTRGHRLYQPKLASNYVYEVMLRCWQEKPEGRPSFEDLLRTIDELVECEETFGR
Sequence of MERTK (Q12866 21-999): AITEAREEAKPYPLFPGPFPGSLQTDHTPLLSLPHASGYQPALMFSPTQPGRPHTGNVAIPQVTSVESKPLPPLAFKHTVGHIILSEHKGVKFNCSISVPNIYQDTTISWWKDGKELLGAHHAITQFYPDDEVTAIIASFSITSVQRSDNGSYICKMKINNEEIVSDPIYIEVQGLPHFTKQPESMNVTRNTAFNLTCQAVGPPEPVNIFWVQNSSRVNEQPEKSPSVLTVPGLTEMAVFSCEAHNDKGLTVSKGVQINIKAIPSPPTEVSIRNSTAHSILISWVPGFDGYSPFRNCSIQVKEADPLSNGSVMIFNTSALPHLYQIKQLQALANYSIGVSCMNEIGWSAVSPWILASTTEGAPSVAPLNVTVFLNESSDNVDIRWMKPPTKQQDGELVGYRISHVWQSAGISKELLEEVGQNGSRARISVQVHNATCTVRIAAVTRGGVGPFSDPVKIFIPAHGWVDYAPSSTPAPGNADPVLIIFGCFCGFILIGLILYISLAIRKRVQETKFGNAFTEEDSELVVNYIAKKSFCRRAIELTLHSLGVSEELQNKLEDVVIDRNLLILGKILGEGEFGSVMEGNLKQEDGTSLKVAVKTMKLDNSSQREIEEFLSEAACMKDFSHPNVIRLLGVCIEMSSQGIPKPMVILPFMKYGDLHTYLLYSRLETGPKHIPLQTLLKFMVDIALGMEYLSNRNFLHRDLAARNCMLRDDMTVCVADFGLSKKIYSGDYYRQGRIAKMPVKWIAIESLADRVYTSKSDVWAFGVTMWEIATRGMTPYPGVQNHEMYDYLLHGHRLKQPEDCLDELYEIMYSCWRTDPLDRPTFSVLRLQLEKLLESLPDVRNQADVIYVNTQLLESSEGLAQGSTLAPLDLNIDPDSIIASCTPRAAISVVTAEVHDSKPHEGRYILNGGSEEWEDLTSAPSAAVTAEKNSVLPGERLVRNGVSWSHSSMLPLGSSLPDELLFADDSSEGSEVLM

- GI50 (PC3 cells; PC-3, 96 h, 96-well plates, N.d. = no growth inhibition observed within the concentrations tested): 11.4 ± 4.1 µM
- IC50 (BMX; Experiment 2 of Fig. S3, control commercial BMX-IN-1, read-out: BMX IC50): 0.0041 ± 0.0003 µM
- IC50 (BMX; [9]): 0.0075 µM
- LE (BMX) (BMX; ligand efficiency): 0.29
- LipE (BMX) (BMX; lipophilic efficiency): 4.17
- BTK potency gain (fold) relative to BMX-IN-1 (BTK [1]): 33 fold
- IC50 (BTK [1]): 0.0111 ± 0.0008 µM
- LE (BTK) (BTK [1]; ligand efficiency): 0.29
- LipE (BTK) (BTK [1]; lipophilic efficiency): 4.00
- Papp (in vitro; pH 6.8, PAMPA permeability): 6.8 ×10⁻⁶ cm/s
- Papp (in vitro; [10]): 6.8 ± 0.4 ×10⁻⁶ cm/s
- PAMPA/%R membrane retention [2]: 13±1%
- GI50 (U-87MG): 5.04 ± 0.01 µM
- GI50 (LNCaP cells [3]; 96-well plates, mean of three experiments in triplicate): 1.5 µM
- GI50 (SK-N-MC): 8.53 ± 0.44 µM
- solubility [5]: 1 µM (≈ 0.525 µg/mL)
- ΔTm at 100 µM ([6]; 100 μM compound, versus apo-BMX): 11.34 ± 0.01 °C
- Average Tm of BMX with compound ([6]; 100 μM compound): 63.57±0.01 °C
SMILES: C=CC(=O)Nc1cc(-n2c(=O)ccc3cnc4cc(-c5ccc(NS(C)(=O)=O)cc5)ccc4c32)ccc1C [JS24]
- GI50 (Kasumi): 5.12 ± 0.12 µM
- decrease in cell viability (LNCaP cells [4]; co-treatment with AKT1/2 (1 μM), relative to control AKT1/2): 48%
- cell viability reduction (LNCaP cells [4]): 44%
- decrease in cell viability (LNCaP cells [4]; [11]): 35%

SMILES: C=CC(=O)Nc1cc(C)cc(-n2c(=O)ccc3cnc4cc(-c5ccc(NS(C)(=O)=O)cc5)ccc4c32)c1 [JS25]
- GI50 (PC3 cells; PC-3, 96 h): 12.1 ± 0.7 µM
- remaining binding at 1 µM (BTK [7]): 0%
- remaining binding at 1 µM (AKT1): 100%
- remaining binding at 1 µM (ABL1-phosphorylated): 100%
- IC50 (BMX; [9]): 0.0035 µM
- IC50 (BTK [1]): 0.0058 ± 4e-05 µM
- Papp (in vitro; pH 6.8, PAMPA permeability): 3.8 ×10⁻⁶ cm/s
- Papp (in vitro; [10]): 3.8 ± 1.6 ×10⁻⁶ cm/s
- remaining binding at 1 µM (TEC): 0.4%
- PAMPA/%R membrane retention [2]: 10±18%
- remaining binding at 1 µM (MERTK): 89%
- GI50 (LNCaP cells [3]): 6.6 µM
- remaining binding at 1 µM (FGR): 93%
- cell viability reduction (LNCaP cells [4]): 63%
- decrease in cell viability (LNCaP cells [4]; [11]): 59%
- remaining binding at 1 µM (STK11): 52%
- remaining binding at 1 µM (TXK): 3.4%
- remaining binding at 1 µM [8]: 21%
- solubility [5]: 0.1 µM (≈ 0.0525 µg/mL)
- remaining binding at 1 µM (MTOR): 100%
- Average Tm of BMX with compound ([6]; 100 μM compound): 61.43±0.48 °C
- ΔTm at 100 µM [6]: 9.3 ± 0.48 °C
